In ChEMBL document CHEMBL5303304, “EUbOPEN Chemogenomics Library - IncuCyte” (2023):

Legend:
Type in all cases: toxicity, cell-based
[1] = test system: HEK-293T; experiment: Incucyte cell viability with HEK293T; conditions: human, 10 µM, compound concentration 10 uM
[2] = test system: Fibroblast; experiment: Incucyte cell viability with human fibroblast; conditions: 10 µM, compound concentration 10 uM
[3] = test system: U2OS; experiment: Incucyte cell viability with U2OS; conditions: human, 10 µM, compound concentration 10 uM
Note: unitless GR value; below 1 slowed growth and below 0 cell loss.

SMILES	Growth Rate ([1]; 0 h, replicate number 2)	Growth Rate ([1]; 6 h, replicate number 1)	Growth Rate ([1]; 6 h, replicate number 2)	Growth Rate ([1]; 12 h, replicate number 2)	Growth Rate ([1]; 18 h, replicate number 2)	Growth Rate ([1]; 24 h, replicate number 1)	Growth Rate ([1]; 24 h, replicate number 2)	Growth Rate ([2]; 6 h, replicate number 1)	Growth Rate ([2]; 12 h, replicate number 1)	Growth Rate ([2]; 18 h, replicate number 1)	Growth Rate ([2]; 24 h, replicate number 1)	Growth Rate ([3]; 0 h, replicate number 2)	Growth Rate ([3]; 6 h, replicate number 2)	Growth Rate ([3]; 12 h, replicate number 1)	Growth Rate ([3]; 12 h, replicate number 2)	Growth Rate ([3]; 18 h, replicate number 1)	Growth Rate ([3]; 18 h, replicate number 2)	Growth Rate ([3]; 24 h, replicate number 1)	Growth Rate ([1]; 0 h, replicate number 1)	Growth Rate ([2]; 6 h, replicate number 2)	also measured
CN(C)CCCN1c2ccccc2Sc2ccc(Cl)cc21.Cl [CHLORPROMAZINE HYDROCHLORIDE]	-0.89	0.64	0.48	0.52	0.37	0.15	0.19	-0.57	-0.38	-0.35	-0.22	-0.21	-0.06	0.42	0.12	0.77	0.33	0.91			Growth Rate ([1]; 12 h, replicate number 1): 0.66; Growth Rate ([1]; 18 h, replicate number 1): 0.18; Growth Rate ([2]; 0 h, replicate number 2): 0.33; Growth Rate ([3]; 0 h, replicate number 1): -0.42; Growth Rate ([3]; 24 h, replicate number 2): 0.39
C[C@H](CCC(=O)O)[C@H]1CC[C@H]2[C@@H]3[C@H](O)C[C@@H]4C[C@H](O)CC[C@]4(C)[C@H]3C[C@H](O)[C@]12C [CHOLIC ACID]	0.01						1	-0.41	0.82	0.38	0.81	0.9	0.92		0.92	0.98			0.14	0.33	Growth Rate ([2]; 0 h, replicate number 1): 0.6; Growth Rate ([2]; 12 h, replicate number 2): 0.56; Growth Rate ([2]; 18 h, replicate number 2): 0.65; Growth Rate ([2]; 24 h, replicate number 2): 0.97; Growth Rate ([3]; 24 h, replicate number 2): 0.97
Cc1nnc2ccc(-c3cccc(C(F)(F)F)c3)nn12 [CI-218872]	0.45			0.87	0.95		0.99	0.38	-1				0.83	0.88		0.84	0.97		0.97	-1	Growth Rate ([2]; 12 h, replicate number 2): 0.98; Growth Rate ([3]; 6 h, replicate number 1): 0.76
CC1(C)C[C@@H]1C(=O)N/C(=C\CCCCSC[C@H](N)C(=O)O)C(=O)O [CILASTATIN]	0.73	0.74	0.55	0.9								0.88	0.81	0.97	0.74	0.9	0.82	0.9	-0.01	0.61	Growth Rate ([2]; 0 h, replicate number 2): -0.91; Growth Rate ([2]; 24 h, replicate number 2): 0.83; Growth Rate ([3]; 24 h, replicate number 2): 0.79
O=C(O)c1ccnc(N2CC(O)(c3ccc(OCc4c(-c5c(Cl)cccc5Cl)noc4C4CC4)cc3Cl)C2)c1 [CILOFEXOR]	0.73		0.54	0.68	0.85	0.89	1			0.87					1				0.8	-0.03	Growth Rate ([2]; 24 h, replicate number 2): 0.8
CC(C)(C[C@H]1CN(S(=O)(=O)c2cccc(C(F)(F)F)c2)c2cc(-c3cc(F)cc(OC(F)F)c3)ccc2O1)C(=O)O [CINTIRORGON]	-0.41	0.88	0.81	0.88	0.9			-0.68	0.59	0.49	0.29			0.81		0.78			1	0.8	Growth Rate ([2]; 0 h, replicate number 2): 0.71; Growth Rate ([2]; 12 h, replicate number 2): 0.54; Growth Rate ([2]; 18 h, replicate number 2): 0.81; Growth Rate ([2]; 24 h, replicate number 2): 0.69; Growth Rate ([3]; 0 h, replicate number 1): 0.78
CCC(=O)O[C@]1(C(=O)CCl)[C@@H](C)C[C@H]2[C@@H]3CCC4=CC(=O)C=C[C@]4(C)[C@@]3(F)[C@@H](O)C[C@@]21C [CLOBETASOL PROPIONATE]		0.7	1					0.53	-1			-0.24	0.94	0.77	0.76	0.92	0.88	0.83			Growth Rate ([3]; 6 h, replicate number 1): -0.15
Cc1cc(C(C#N)c2ccc(Cl)cc2)c(Cl)cc1NC(=O)c1cc(I)cc(I)c1O (stereo not given) [CLOSANTEL]	0.76	0.13	0.49	0.84	0.87	0.89	0.91		-1			-1	0.91		0.94		0.87	0.98	0.61		Growth Rate ([1]; 12 h, replicate number 1): 0.27; Growth Rate ([1]; 18 h, replicate number 1): 0.5; Growth Rate ([2]; 0 h, replicate number 2): -0.74; Growth Rate ([3]; 0 h, replicate number 1): 0.36; Growth Rate ([3]; 24 h, replicate number 2): 0.99
Clc1ccccc1C(c1ccccc1)(c1ccccc1)n1ccnc1 [CLOTRIMAZOLE]	-0.96		0.62	0.5	0.54	0.72	0.41			0.54	0.82	0.7	0.77	0.97	0.94		0.81		0.08		Growth Rate ([1]; 18 h, replicate number 1): 0.79; Growth Rate ([2]; 0 h, replicate number 1): 0.95; Growth Rate ([2]; 0 h, replicate number 2): 0.29; Growth Rate ([2]; 18 h, replicate number 2): 1; Growth Rate ([3]; 24 h, replicate number 2): 0.76
COc1c(OCCCN2CCOCC2)ccc2c1N=C(NC(=O)c1cnc(N)nc1)N1CCN=C21 [COPANLISIB]	-1	0.09	-0.34	-0.17	-0.05	0.18	-0.04	-0.21	0.1	0.26	0.41					0.98	0.9	0.96		-0.38	Growth Rate ([1]; 12 h, replicate number 1): 0.15; Growth Rate ([1]; 18 h, replicate number 1): 0.12; Growth Rate ([2]; 12 h, replicate number 2): -0.18; Growth Rate ([2]; 18 h, replicate number 2): 0.04; Growth Rate ([2]; 24 h, replicate number 2): 0.24; Growth Rate ([3]; 0 h, replicate number 1): -0.44; Growth Rate ([3]; 6 h, replicate number 1): 0.74; Growth Rate ([3]; 24 h, replicate number 2): 0.79
O=c1cccc2n1C[C@@H]1CNC[C@H]2C1 [CYTISINICLINE]			0.9	0.75	0.92	0.88	0.99		-0.82		0.51			0.79	0.94	0.97	0.99	0.99		-0.4	Growth Rate ([1]; 12 h, replicate number 1): 0.46; Growth Rate ([1]; 18 h, replicate number 1): 0.79; Growth Rate ([2]; 12 h, replicate number 2): 0.99; Growth Rate ([2]; 18 h, replicate number 2): 0.88; Growth Rate ([2]; 24 h, replicate number 2): 0.81
